We go through two compounds from patent publication US20250186408A1, “TREATMENT OF PHARMACORESISTANT EPILEPSY” (Katholieke Universiteit Leuven, priority 2021, published 2025).

A short description of data set [1]: Aqueous solubility. In kind it is physicochemical. The source says:
In vitro ADME profiling of compounds was done by Eurofins Panlabs Inc (St Charles, MO, USA) using their ADME-Tox service (Cat Ref P375, Tier 1 ADME Panel). […] (28). The atom-based log P calculation method, called OsirisP, uses as an increment system and adds contributions of every atom based on its atom type. The prediction engine distinguishes a total of 368 atom types and was optimized using a training set of more than 5000 molecules with experimentally determined log P values. The free prediction engine has proven to outperform many alternative calculation methods (29).
SGF, SIF and PBS buffers were prepared as follows: 34.2 mM NaCl, 84.7 mM HCl, 3.2 g/L pepsin (pH 2) for SGF, 50 mM KH2PO4, 38 mM NaOH, 10 g/L pancreatin (pH 7.5) for SIF and 137 mM NaCl, 2.7 mM KCl, 8.1 mM Na2HPO4 and 1.5 mM KH2PO4 (pH 7.4) for PBS. Test compounds were prepared at 200 μM concentrations in the corresponding buffer from a 10 mM stock solution (final solvent concentration of 2% DMSO). Buffer samples were mixed thoroughly followed by a 24 h incubation at room temperature. Samples were centrifuged and the supernatant was used for HPLC analysis. A calibration standard of the test compound was prepared at 200 μM in methanol/water (3:2 v/v) from the stock solution on the day of the analysis. Metoprolol, rifampicin, ketoconazole, phenytoin, haloperidol, simvastatin, diethylstilbestrol and tamoxifen were included in each assay. Aqueous solubility (μM) was determined by comparing peak areas.

The target of data set [2] is ADORA2A (Homo sapiens, UniProt P29274). Put plainly: Calcium Flux ADORA2A Agonist. Format: cell-based. Particulars: for EC50: read-out: RC50, result type EC50; for Emax: read-out: Max response. As for the experimental part:
(≤0.2% DMSO concentration). Assays were performed in 1× dye loading buffer consisting of 1× Dye (DiscoverX, Calcium No Wash^PLUS kit, Catalog No. 90-0091), 1× Additive A and 2.5 mM Probenecid in HBSS/20 mM HEPES. Probenecid was prepared fresh. Prior to testing, media was aspirated from cells and replaced with 25 μL dye loading buffer. Cells were incubated for 45 min at 37° C. and then 20 min at RT. For agonist determination, 25 μL of 2× compound in HBSS/20 mM HEPES was added using a FLIPR Tetra (MDS). […] 25 μL of 2× sample was added and cells were incubated for 30 min at RT in the dark to equilibrate plate temperature. After incubation, antagonist determination was initiated by addition of 25 μL of 1× compound with 3×EC80 agonist using FLIPR. For both agonist and antagonist formats, activity was measure on a FLIPR Tetra (MDS). Calcium mobilization was monitored for 2 min with a 5 sec baseline read.
FLIPR read—Area under the curve, was calculated for the entire 2 min read.
(In general: A change in cytosolic calcium serves as a functional read-out for many receptors and channels.)

In data set [3] the target is hERG (Homo sapiens, UniProt Q12809). Nature of the data set: Ion Channel hERG Blocker. Format: cell-based. Particulars: for Emax at 30 min: human, read-out: Max response; for IC50: read-out: RC50, result type IC50. For orientation: Block of hERG is tested as a sign of cardiac risk.
Data set [4] deals with NAV1.5 (Homo sapiens, UniProt Q14524). Put plainly: Ion Channel NAV1.5 Blocker. Format: cell-based. As to conditions: for Emax at 30 min: Ion Channel NAV1.5 Blocker, read-out: Max response.
Data set [5] addresses CNR1 (Homo sapiens, UniProt P21554). Nature of the data set: cAMP CNR1 Agonist. Particulars: for Emax: read-out: Max response.
Procedure: (§1) In vitro pharmacological profiling of compounds was done against 78 functional assays for 47 common off-targets (30) by Eurofins DiscoverX Corporation (Fremont, CA, USA) using their SAFETYscan E/IC50 ELECT service (Cat Ref 87-1003DR, Safety47 Panel Dose Response). […] Compounds were tested in a range of 10 concentrations, following a 3-fold serial dilution, starting from 10 μM. The assays were performed utilizing the PathHunter enzyme fragment complementation (EFC) technology, FLIPR®-based cellular screening assays, and KINOMEscan kinase binding assays.
(§2) cAMP Hunter cell lines were expanded from freezer stocks. Prior to testing, cells were seeded in a total volume of 20 μL into white walled 384-well microplates and incubated at 37° C. cAMP modulation was determined using the DiscoverX HitHunter cAMP XS+ assay. For Gs agonist determination, cells were incubated with sample to induce response. For Gi agonist determination, cells were incubated with sample in the presence of EC80 forskolin to induce response. For both conditions, media was aspirated from cells and replaced with 15 μL 2:1 HBSS/10 mM HEPES:cAMP XS+ Ab reagent. Intermediate dilution of sample stocks was performed to generate 4× sample in assay buffer (containing 4×EC80 forskolin in the case of antagonist determination). 5 μL of 4× sample was added to cells and incubated at 37° C. or room temperature (RT) for 30 or 60 min. Final assay vehicle concentration was 1%. For antagonist determination, cells were pre-incubated with sample followed by agonist challenge at the EC80 concentration. Media was aspirated from cells and replaced with 10 μL 1:1 HBSS/HEPES:cAMP XS+ Ab reagent. 5 μL of 4× compound was added to the cells and incubated at 37° C. or RT for 30 min. 5 μL of 4×EC80 agonist was added to the cells and incubated at 37° C. or RT for 30 or 60 min. For Gi coupled GPCRs, EC80 forskolin was included. […] Microplates were read following signal generation with a PerkinElmer Envision™ instrument for chemiluminescent signal detection. Compound activity was analyzed using CBIS data analysis suite (ChemInnovation, CA).
Data set [6] concerns the target T1, ADRA2A (Homo sapiens, UniProt P08913).
T1 sequence (P08913 1-465): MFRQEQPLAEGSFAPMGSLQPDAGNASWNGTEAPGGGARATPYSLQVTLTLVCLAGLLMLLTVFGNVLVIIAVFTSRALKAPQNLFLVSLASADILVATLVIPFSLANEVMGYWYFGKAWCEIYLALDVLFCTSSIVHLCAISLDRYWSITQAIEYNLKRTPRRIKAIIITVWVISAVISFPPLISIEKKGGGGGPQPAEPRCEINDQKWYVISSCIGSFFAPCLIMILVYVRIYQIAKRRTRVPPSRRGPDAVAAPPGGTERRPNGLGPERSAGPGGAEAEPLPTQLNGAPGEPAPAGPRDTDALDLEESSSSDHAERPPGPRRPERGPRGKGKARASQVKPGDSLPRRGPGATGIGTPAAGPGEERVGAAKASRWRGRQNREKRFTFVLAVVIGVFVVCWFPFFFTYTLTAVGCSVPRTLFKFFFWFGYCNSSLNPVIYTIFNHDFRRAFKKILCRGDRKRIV
Put plainly: cAMP ADRA2A Agonist. Particulars: for Emax: read-out: Max response.
Procedure: as §1, §2

Data set [7] deals with DRD1 (Homo sapiens, UniProt P21728). Put plainly: cAMP DRD1 Antagonist. As to conditions: for Emax: read-out: Max response.
Procedure: In vitro pharmacological profiling of compounds was done against 78 functional assays for 47 common off-targets (30) by Eurofins DiscoverX Corporation (Fremont, CA, USA) using their SAFETYscan E/IC50 ELECT service (Cat Ref 87-1003DR, Safety47 Panel Dose Response). […] Compounds were tested in a range of 10 concentrations, following a 3-fold serial dilution, starting from 10 μM.
as §2
Data set [8] concerns the target OPRM1 (Homo sapiens, UniProt P35372). Nature of the data set: cAMP OPRM1 Antagonist. Particulars: for Emax: OPRM1, read-out: Max response.
Procedure: as §1
cAMP Hunter cell lines were expanded from freezer stocks. Prior to testing, cells were seeded in a total volume of 20 μL into white walled 384-well microplates and incubated at 37° C. cAMP modulation was determined using the DiscoverX HitHunter cAMP XS+ assay. For Gs agonist determination, cells were incubated with sample to induce response. For Gi agonist determination, cells were incubated with sample in the presence of EC80 forskolin to induce response. For both conditions, media was aspirated from cells and replaced with 15 μL 2:1 HBSS/10 mM HEPES:cAMP XS+ Ab reagent. Intermediate dilution of sample stocks was performed to generate 4× sample in assay buffer (containing 4×EC80 forskolin in the case of antagonist determination). 5 μL of 4× sample was added to cells and incubated at 37° C. or room temperature (RT) for 30 or 60 min. Final assay vehicle concentration was 1%. For antagonist determination, cells were pre-incubated with sample followed by agonist challenge at the EC80 concentration. Media was aspirated from cells and replaced with 10 μL 1:1 HBSS/HEPES:cAMP XS+ Ab reagent. 5 μL of 4× compound was added to the cells and incubated at 37° C. or RT for 30 min. 5 μL of 4×EC80 agonist was added to the cells and incubated at 37° C. or RT for 30 or 60 min. For Gi coupled GPCRs, EC80 forskolin was included. […] Microplates were read following signal generation with a PerkinElmer Envision™ instrument for chemiluminescent signal detection. Compound activity was analyzed using CBIS data analysis suite (ChemInnovation, CA). For Gs agonist mode assays, percentage activity was calculated using the following equation:
The mark [9] stands for this setting: aqueous buffer, kinetic from dmso stock, PBS pH 7.4, tested at 200 μM, 24 h room temperature, read-out: aqueous solubility PBS (pH 7.4).
Where [10] appears, read: fassgf or other biorelevant, kinetic from dmso stock, simulated intestinal fluid pH 7.5, tested at 200 μM, read-out: aqueous solubility simulated intestinal fluid.
The mark [11] stands for this setting: kinetic from dmso stock, simulated gastric fluid pH 2, tested at 200 μM, read-out: aqueous solubility simulated gastric fluid.

Values after ≈ are worked out from the molar mass of the structure shown. Where two headings read alike, the source gives them in different places.

Sequence of hERG (Q12809 whole entry): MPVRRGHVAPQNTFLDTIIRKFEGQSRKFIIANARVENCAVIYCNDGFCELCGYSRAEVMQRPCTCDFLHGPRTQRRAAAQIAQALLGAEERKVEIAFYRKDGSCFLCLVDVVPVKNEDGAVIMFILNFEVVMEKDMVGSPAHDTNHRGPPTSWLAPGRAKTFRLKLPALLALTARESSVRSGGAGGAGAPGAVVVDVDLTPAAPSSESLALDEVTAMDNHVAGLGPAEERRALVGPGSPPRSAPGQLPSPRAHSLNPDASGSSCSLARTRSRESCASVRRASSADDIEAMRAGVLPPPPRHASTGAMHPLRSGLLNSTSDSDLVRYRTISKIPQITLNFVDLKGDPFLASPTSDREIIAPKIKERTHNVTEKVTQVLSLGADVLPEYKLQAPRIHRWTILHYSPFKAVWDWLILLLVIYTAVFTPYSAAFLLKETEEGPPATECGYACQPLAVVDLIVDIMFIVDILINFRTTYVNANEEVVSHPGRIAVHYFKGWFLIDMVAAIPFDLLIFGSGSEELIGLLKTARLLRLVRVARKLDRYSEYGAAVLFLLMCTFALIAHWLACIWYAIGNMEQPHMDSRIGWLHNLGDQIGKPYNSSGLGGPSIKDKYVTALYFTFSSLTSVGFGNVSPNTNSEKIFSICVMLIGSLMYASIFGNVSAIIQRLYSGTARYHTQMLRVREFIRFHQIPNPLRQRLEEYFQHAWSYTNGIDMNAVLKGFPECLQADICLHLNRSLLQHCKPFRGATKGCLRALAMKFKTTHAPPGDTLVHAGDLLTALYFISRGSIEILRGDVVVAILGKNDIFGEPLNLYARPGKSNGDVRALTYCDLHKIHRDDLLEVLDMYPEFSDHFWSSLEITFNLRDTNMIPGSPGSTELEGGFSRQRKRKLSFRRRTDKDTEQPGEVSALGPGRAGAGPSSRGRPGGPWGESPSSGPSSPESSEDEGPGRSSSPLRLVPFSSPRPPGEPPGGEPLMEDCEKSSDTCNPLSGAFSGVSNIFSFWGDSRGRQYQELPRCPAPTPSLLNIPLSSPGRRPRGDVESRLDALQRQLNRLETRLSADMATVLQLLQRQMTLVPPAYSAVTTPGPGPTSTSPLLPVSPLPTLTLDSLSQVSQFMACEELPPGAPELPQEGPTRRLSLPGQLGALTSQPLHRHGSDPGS
Sequence of DRD1 (P21728 whole entry): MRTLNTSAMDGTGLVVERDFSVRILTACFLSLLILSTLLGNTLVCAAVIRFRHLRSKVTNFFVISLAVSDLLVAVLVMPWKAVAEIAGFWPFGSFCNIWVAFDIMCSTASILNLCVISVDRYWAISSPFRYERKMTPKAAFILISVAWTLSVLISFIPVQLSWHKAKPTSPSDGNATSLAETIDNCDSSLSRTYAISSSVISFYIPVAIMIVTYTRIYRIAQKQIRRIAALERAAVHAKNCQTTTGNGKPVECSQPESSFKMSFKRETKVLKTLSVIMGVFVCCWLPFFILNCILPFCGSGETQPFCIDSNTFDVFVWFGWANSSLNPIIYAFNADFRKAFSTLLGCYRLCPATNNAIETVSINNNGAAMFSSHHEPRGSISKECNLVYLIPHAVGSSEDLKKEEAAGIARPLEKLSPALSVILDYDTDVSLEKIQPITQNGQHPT
Sequence of CNR1 (P21554 whole entry): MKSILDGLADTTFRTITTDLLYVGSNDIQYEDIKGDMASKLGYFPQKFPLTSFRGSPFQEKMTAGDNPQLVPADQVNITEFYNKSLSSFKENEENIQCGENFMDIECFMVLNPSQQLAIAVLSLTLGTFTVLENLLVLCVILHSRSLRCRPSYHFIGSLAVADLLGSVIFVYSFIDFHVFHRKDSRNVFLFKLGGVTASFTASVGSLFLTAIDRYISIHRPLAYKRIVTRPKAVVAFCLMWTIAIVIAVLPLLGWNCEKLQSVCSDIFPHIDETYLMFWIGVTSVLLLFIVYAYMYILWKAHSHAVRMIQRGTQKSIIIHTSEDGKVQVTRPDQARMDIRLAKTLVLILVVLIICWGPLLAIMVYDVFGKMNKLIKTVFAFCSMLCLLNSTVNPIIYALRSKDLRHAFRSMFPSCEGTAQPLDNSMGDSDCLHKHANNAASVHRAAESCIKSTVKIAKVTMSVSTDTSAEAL
Sequence of NAV1.5 (Q14524 whole entry): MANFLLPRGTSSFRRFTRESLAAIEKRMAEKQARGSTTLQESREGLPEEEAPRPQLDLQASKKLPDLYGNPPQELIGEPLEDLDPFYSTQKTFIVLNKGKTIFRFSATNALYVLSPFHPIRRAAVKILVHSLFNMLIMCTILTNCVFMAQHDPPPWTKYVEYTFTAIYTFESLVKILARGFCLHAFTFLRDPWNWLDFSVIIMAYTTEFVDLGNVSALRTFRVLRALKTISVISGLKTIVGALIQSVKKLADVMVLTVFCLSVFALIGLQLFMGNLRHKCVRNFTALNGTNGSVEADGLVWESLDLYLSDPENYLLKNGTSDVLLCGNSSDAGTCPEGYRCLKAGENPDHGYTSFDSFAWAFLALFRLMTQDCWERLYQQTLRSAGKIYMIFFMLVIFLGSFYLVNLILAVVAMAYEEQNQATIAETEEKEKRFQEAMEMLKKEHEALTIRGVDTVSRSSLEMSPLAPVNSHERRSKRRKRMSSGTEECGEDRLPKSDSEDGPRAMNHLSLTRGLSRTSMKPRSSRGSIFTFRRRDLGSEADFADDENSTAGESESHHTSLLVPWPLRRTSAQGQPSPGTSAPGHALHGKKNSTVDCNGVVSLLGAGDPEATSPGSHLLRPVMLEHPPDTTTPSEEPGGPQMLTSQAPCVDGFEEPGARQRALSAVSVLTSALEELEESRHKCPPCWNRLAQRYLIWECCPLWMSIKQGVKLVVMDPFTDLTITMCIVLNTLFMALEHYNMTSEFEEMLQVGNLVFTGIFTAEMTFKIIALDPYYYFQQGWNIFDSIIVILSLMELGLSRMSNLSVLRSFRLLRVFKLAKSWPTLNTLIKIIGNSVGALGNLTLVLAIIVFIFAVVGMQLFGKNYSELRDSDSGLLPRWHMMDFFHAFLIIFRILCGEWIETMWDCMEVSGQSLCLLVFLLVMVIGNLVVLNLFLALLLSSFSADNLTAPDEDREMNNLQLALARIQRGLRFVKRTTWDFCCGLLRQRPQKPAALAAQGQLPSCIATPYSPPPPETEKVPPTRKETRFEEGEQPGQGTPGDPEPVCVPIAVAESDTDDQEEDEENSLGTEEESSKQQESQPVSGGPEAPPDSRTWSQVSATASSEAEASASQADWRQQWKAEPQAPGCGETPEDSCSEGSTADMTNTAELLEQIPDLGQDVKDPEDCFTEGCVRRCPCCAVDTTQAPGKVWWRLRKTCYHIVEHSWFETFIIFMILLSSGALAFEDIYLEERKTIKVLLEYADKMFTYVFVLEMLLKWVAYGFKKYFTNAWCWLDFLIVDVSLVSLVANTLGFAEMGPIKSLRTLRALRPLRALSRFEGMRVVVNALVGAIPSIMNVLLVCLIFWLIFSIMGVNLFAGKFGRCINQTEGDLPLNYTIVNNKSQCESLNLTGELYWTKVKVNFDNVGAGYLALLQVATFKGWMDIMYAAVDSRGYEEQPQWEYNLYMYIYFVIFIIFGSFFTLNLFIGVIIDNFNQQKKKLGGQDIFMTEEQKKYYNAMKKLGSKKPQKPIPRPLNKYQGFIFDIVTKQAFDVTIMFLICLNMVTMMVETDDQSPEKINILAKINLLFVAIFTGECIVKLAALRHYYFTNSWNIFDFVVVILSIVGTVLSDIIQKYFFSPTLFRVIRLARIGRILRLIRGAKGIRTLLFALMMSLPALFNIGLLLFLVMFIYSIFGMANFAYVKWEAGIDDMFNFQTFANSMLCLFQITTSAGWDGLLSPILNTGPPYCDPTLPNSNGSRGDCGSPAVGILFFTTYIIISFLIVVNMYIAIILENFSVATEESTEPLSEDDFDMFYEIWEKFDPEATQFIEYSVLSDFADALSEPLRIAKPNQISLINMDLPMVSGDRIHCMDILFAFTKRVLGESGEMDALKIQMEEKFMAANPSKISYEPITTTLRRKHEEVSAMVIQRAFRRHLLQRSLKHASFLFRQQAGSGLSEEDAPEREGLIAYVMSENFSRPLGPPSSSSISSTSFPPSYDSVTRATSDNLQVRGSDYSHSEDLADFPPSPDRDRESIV
Sequence of ADORA2A (P29274 whole entry): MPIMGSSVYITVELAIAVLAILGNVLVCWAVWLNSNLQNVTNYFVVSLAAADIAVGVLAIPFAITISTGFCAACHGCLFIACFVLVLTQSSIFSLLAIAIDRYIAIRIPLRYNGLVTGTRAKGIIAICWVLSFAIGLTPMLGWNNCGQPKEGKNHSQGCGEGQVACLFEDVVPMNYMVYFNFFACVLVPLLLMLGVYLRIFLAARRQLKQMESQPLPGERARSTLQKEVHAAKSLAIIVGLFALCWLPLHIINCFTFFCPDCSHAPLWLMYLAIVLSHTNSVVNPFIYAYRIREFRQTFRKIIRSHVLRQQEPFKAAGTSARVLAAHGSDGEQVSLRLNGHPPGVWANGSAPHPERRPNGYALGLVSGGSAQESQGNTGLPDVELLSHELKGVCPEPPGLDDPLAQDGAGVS
Sequence of OPRM1 (P35372 whole entry): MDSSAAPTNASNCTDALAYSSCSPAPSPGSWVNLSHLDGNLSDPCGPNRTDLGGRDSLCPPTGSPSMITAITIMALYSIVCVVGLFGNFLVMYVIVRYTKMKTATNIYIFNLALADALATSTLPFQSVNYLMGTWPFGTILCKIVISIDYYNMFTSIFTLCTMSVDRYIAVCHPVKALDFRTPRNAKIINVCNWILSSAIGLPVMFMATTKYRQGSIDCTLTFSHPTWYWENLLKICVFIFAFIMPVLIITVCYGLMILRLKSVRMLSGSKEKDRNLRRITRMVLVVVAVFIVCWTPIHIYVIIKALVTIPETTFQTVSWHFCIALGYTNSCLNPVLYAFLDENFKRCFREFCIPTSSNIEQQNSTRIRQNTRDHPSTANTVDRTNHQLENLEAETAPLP

Usually solubility stands for the concentration that dissolves in the medium under given conditions. As a reminder, the EC50 is the concentration at which the effect is half-maximal. Broadly, the IC50 is the concentration needed to halve the response being measured. On to `CC(C)(C)c1ccc(C#CC(O)c2ccccc2)cc1` (racemic) [Compound 3.3, rac-3-(4-(tert-butyl)phenyl)-1-phenylprop-2-yn-1-ol], for which the solubility at 24 h in data set [1] (setting [9]) was 17.7 µM (≈ 4.68 µg/mL); in data set [1] (setting [10]), 102 µM (≈ 27.1 µg/mL); in data set [1] (setting [11]) it was 24.5 µM (≈ 6.48 µg/mL). The EC50 in data set [2] (Calcium Flux ADORA2A Agonist), in data set [5] and in data set [6] was above 10 µM each time. The Emax in data set [2] stood at 1.8%; in data set [5], 9.8%; in data set [6], 0%; in data set [7], 2.7%; in data set [8], 0.8%. For the same compound, the values for the Emax at 30 min in data set [3] and in data set [4] were 3.8% and 59.9%, respectively. For the same compound, the IC50 in data set [3], in data set [4], in data set [7] and in data set [8] was above 10 µM each time.
`Clc1cccc(C#Cc2n[nH]c3ncccc23)c1` [Compound 10.1, 3-((3-chlorophenyl)ethynyl)-1H-pyrazolo[3,4-b]pyridine]: the solubility at 24 h in data set [1] (PBS pH 7.4, tested at 200 μM, 24 h room temperature, read-out: aqueous solubility PBS (pH 7.4)) was below 0.1 µM; in data set [1] (setting [9]), below 0.1 µM; in data set [1] (setting [10]), 26.7 µM (≈ 6.77 µg/mL); in data set [1] (setting [11]) it was 26.7 µM (≈ 6.77 µg/mL). Besides, the Emax in data set [2] (Calcium Flux ADORA2A Agonist) came out at 3%; in data set [5], 20.1%; in data set [6], 20.7%; in data set [7] it was 17.2%; in data set [8] it was 0%. For the same compound, the EC50 in data set [2] (Calcium Flux ADORA2A Agonist), in data set [5] and in data set [6] was above 10 µM in each case. Besides, the Emax at 30 min was 6.6% in data set [3] and 21.5% in data set [4]. The 50% inhibitory concentration (IC50) in data set [3], in data set [4], in data set [7] and in data set [8] was above 10 µM in each case.
